Consider seven compounds from patent US20240084305A1, “MODULATORS OF CELL PROLIFERATION AND USES THEREOF” (Kumquat Biosciences Inc., priority 2020, published 2024).

Each structure is given as a SMILES string.

By inhibition is commonly meant how much of the control response was suppressed.

Common to all, as to assay type: cell-based
The test system of assay [1] is A427, ASPC1 and Ls513 cancer cell lines (KRAS G12D mutation). Put plainly: cell growth inhibition in 3D suspension culture after lentiviral shRNA KRAS knockdown plus inhibitor, Bliss independence model. The note with it: for degree of synergy of cell growth inhibition (excess over Bliss): all cell lines tested. The text has this: This study explores the inhibition of a variety types (e.g., Kras G12D driven tumor cells) of cancer cells using a combination of nucleic-acid based Kras12D inhibitor and SOS inhibitor. Cell lines utilized include A427, a non-small cell lung cancer (NSCLC), ASPC1, a pancreatic cancer, and Ls513, colorectal cancer cell line. All three cell lines contain a KRAS G12D mutation. The cancer cell lines were adherently cultured in vitro and transduced with lentiviral particles packaged with shRNAs targeting either KRAS or negative control gene Luciferase.
Amphotropic lentiviruses were produced by the co-transfection of 293FT cells and were packaged using the ViraPower lentiviral expression system (ThermoFisher Scientific). Lentiviral shRNA clones targeting luciferase (as sh-Ctrl) and KRAS were obtained from Sigma in the MISSION pLKO.1-puro vector with clone IDs as follows: shKRAS #1: TRCN0000033262, NM_033360.2-509s1c1, shKRAS #2: TRCN0000033260, NM_033360.2-407s1c1, and the Luciferase shRNA control plasmid DNA (Cat #SHC007, Sigma). Viral supernatants were filtered through a 0.45 µm filter and supplemented with […] of polybrene (Sigma) and added to 70% confluent cells pre-plated in six-well dishes. Plates were spinfected for 1 h under 600×g at 37° C. centrifugation. Cells were subsequently washed with PBS and allowed to rest 48 hours in fresh culture media at 37° C. Next, cells were reseeded as 3D suspensions (ultra-low adherent plates) into 384 well plates in RPMI medium containing 10% FBS. Approximately 24 hrs later, 10 uM SOS inhibitor as described herein or DMSO (as negative control) was added to the cell cultures for a period of about 5 days. […] The degree of synergy for the combination across cell lines was calculated by using the Bliss independence model. […] The greater the departure from Bliss indicates more profound synergy: <0 is no synergism, 0.05-0.1 is mild synergy, 0.1-0.2 moderate synergy, and >0.2 is robust synergy.
Amphotropic lentiviruses were produced in the same manner as described in the preceding Example 6. 1 uM SHP2 inhibitor as described herein or DMSO (as negative control) was added to the cell cultures for a period of about 5 days. […] The degree of synergy for the combination across cell lines was calculated by using the Bliss independence model. […] The greater the departure from Bliss indicates more profound synergy: <0 is no synergism, 0.05-0.1 is mild synergy, 0.1-0.2 moderate synergy, and >0.2 is robust synergy.
Amphotropic lentiviruses were produced in the same manner as described in the preceding Example 6. […] The concentration of the respective EGFR inhibitors utilized in this cell assay was chosen to be within the range corresponding to achievable exposures and pharmacokinetics of a recommended and clinically relevant doses applied in human. […] The degree of synergy for the combination across cell lines was calculated by using the Bliss independence model as exemplified in the preceding Example 6.
Amphotropic lentiviruses were produced in the same manner as described in the preceding Example 6. 3 nM of Trametinib or DMSO (negative control) was added to the cell cultures for a period of about 5 days. The concentration of the MEK inhibitor utilized in this cell assay was chosen to be within the range corresponding to achievable exposures and pharmacokinetics of a recommended and clinical relevant dose applied in human. […] The degree of synergy for the combination across cell lines was calculated by using the Bliss independence model as exemplified in the preceding Example 6.
Amphotropic lentiviruses were produced in the same manner as described in the preceding Example 6.

The test system of assay [2] is A427, ASPC1, Panc04.03, Ls174T, Ls513, AGS and HEClA cancer cell lines (KRAS G12D mutation). Put plainly: 3D proliferation assay (ultra-low attachment plates), small molecule Kras12D inhibitor plus second inhibitor, Bliss independence model. As to conditions: for cell growth inhibition: across the cell line panel; for maximal cell growth inhibition, on average: average over cell line panel.

Assay [3] shares this test system. The description is as above. The text has this: This study explores the inhibition of a variety types of cancer cells (e.g., KRAS G12D driven tumor cells) using a combination of small molecule based Kras12D inhibitor and SOS inhibitor. Cell lines from multiple indications were utilized and include the A427 (a non-small cell lung cancer, “NSCLC”), ASPC1 and Panc04.03 (both pancreatic cancer), Ls174T and Ls513 (both colorectal cancer), AGS (a gastric cancer), and HEClA (an endometrial cancer cell line). All cell lines contain a KRAS G12D mutation. The seven cancer cell lines were cultured in vitro in a 3D proliferation assay where cells are grown in ultra-low attachment surface cell culture plates in RPMI medium containing ˜10% FBS. Cells were incubated with different concentrations of SOS inhibitor (e.g., 10 uM, 3 uM, or 1 uM) and with different concentrations of a Kras12D inhibitors (either Compound A, Compound B, or Compound C, e.g., 0.1 uM, 0.3 uM, 1.0 uM, 3.0 uM) for a period of 5 days. […] The degree of synergy for the combination across cell lines was calculated by using the Bliss independence model as described herein. […] The greater the departure from Bliss indicates more profound synergy: ≤0 indicates no synergism, 0.05-0.1 indicates mild synergy, 0.1-0.2 indicates moderate synergy, and >0.2 indicates robust synergy.
This study explores the inhibition of a variety types of cancer cells (e.g., KRAS G12D driven tumor cells) using a combination of small molecule based Kras12D inhibitor and SHP2 inhibitor. Cell lines from multiple indications were utilized and include the A427 (a non-small cell lung cancer, “NSCLC”), ASPC1 and Panc04.03 (both pancreatic cancer), Ls174T and Ls513 (both colorectal cancer), AGS (a gastric cancer), and HEClA (an endometrial cancer cell line). All cell lines contain a KRAS G12D mutation. The seven cancer cell lines were cultured in vitro in a 3D proliferation assay where cells are grown in ultra-low attachment surface cell culture plates in RPMI medium containing 10% FBS. Cells were incubated with different concentrations of SHP2 inhibitor (e.g., 10 uM, 3 uM, or 1 uM) and with different concentrations of a Kras12D inhibitors (either Compound A, Compound B, or Compound C, e.g., 0.1 uM, 0.3 uM, 1.0 uM, 3.0 uM) for a period of 5 days. […] The degree of synergy for the combination across cell lines was calculated by using the Bliss independence model as described in the preceding examples.
The study explores the inhibition of a variety types of cancer cells (e.g., KRAS G12D driven tumor cells) using a combination of small molecule based Kras12D inhibitor and EGFR inhibitor.

As to `Cc1nc(NC(=O)N2CCC[C@H]2C(N)=O)sc1-c1ccnc(C(C)(C)C(F)(F)F)c1` [BYL719], the cell growth inhibition result is on record as “up to 87%” in assay [1] (0.3 uM PI3K-alpha inhibitor (BYL719) in combination with nucleic-acid based Kras12D inhibitor) and “no more than 88%” in assay [2] (PI3Ka inhibitor (BYL719) as single agent, across its concentration range (up to 10 uM)). Also, in assay [1] (0.3 uM PI3K-alpha inhibitor (BYL719) in combination with nucleic-acid based Kras12D inhibitor, 5 days), the “degree of synergy of cell growth inhibition (excess over Bliss)” value is given as “little to moderate”. Further, the “maximal cell growth inhibition, on average” value in assay [2] (PI3Ka inhibitor (BYL719) as single agent) is “about 58%”.

For `C[C@@H]1OCC2(CCN(c3cnc(Sc4ccnc(N)c4Cl)c(N)n3)CC2)[C@@H]1N` [SHP2 inhibitor, (3S,4S)-8-(6-amino-5-((2-amino-3-chloropyridin-4-yl)thio)pyrazin-2-yl)-3-methyl-2-oxa-8-azaspiro[4.5]decan-4-amine], in assay [1] (1 uM SHP2 inhibitor in combination with nucleic-acid based Kras12D inhibitor (shRNA KRAS), about 5 days), the “degree of synergy of cell growth inhibition (excess over Bliss)” value is on record as “moderate (0.1-0.2 moderate synergy)”. For the same compound, the cell growth inhibition entry in assay [3] (SHP2 inhibitor as single agent, across its concentration range (up to 10 uM), across the cell line panel) is on record as “no more than 75%”. Further, the “maximal cell growth inhibition, on average” value in assay [3] (SHP2 inhibitor as single agent, average over cell line panel) was “about 36%”.

As to `Cc1c(C#N)cccc1[C@@H](C)Nc1nnc(C)c2cnc(N3CCOCC3)cc12` [SOS inhibitor], in assay [1] (10 uM SOS inhibitor in combination with nucleic-acid based Kras12D inhibitor (shRNA KRAS), about 5 days), the “degree of synergy of cell growth inhibition (excess over Bliss)” value is reported as “robust (>0.2 is robust synergy)”. In addition, the cell growth inhibition entry was “no more than 50%” in assay [3] (SOS inhibitor as single agent, across its concentration range (up to 10 uM), across the cell line panel) and “no significant cell growth inhibition” in assay [3] (SOS inhibitor tested alone (FIG. 12 cell lines)).

Turning to `CC(=O)Nc1cccc(-n2c(=O)n(C3CC3)c(=O)c3c(Nc4ccc(I)cc4F)n(C)c(=O)c(C)c32)c1` [Trametinib, trametinib], the inhibition at 0.003 µM was at most 89% in assay [1] (3 nM Trametinib in combination with nucleic-acid based Kras12D inhibitor) and under 50% in assay [1] (single agent, 3 nM Trametinib). The cell growth inhibition entry in assay [2] (MEK inhibitor as single agent, across its concentration range (up to 0.01 uM)) is listed as “no more than 68%”. Moreover, the “maximal cell growth inhibition, on average” value in assay [2] (MEK inhibitor as single agent) is listed as “about 42%”.

In the case of `CN(C)C/C=C/C(=O)Nc1cc2c(Nc3ccc(F)c(Cl)c3)ncnc2cc1O[C@H]1CCOC1` [afatinib], the inhibition at 0.1 µM in assay [1] (0.1 uM in combination with nucleic-acid based Kras12D inhibitor, pancreatic, colorectal and NSCLC cell lines) is at most 75%; in assay [1] (120 h, single agent, 0.1 uM, about 5 days) it was under 30%. For the same compound, the cell growth inhibition entry in assay [2] (afatinib as single agent, across its concentration range (up to 1 uM)) is on record as “no more than 86%”.

For the compound `C#Cc1cccc(Nc2ncnc3cc(OCCOC)c(OCCOC)cc23)c1` [erlotinib], the inhibition at 3 µM in assay [1] (3 uM in combination with nucleic-acid based Kras12D inhibitor, pancreatic, colorectal and NSCLC cell lines) was at most 75%; in assay [1] (120 h, single agent, 3 uM, about 5 days), under 30%. The cell growth inhibition result in assay [3] (erlotinib as single agent, across its concentration range (up to 10 uM), across the cell line panel) is recorded as “no more than 72%”. Also, the “maximal cell growth inhibition response, on average” value in assay [3] (erlotinib as single agent, average over cell line panel) was “under 50%”.

`CC(=O)c1c(C)c2cnc(Nc3ccc(N4CCNCC4)cn3)nc2n(C2CCCC2)c1=O` [palbociclib]: the cell growth inhibition entry in assay [1] (0.3 uM CDK4/6 inhibitor (Palbociclib) in combination with nucleic-acid based Kras12D inhibitor) is listed as “up to 79%”; in assay [2] (CDK4/6 inhibitor (palbociclib) as single agent, across its concentration range (up to 1 uM)) it was “no more than 81%”. The “maximal cell growth inhibition, on average” value in assay [2] (CDK4/6 inhibitor (palbociclib) as single agent) is “about 48%”.
